The source of these data is US4895856A, “Derivatives of 5-pentylamino-5-oxopentanoic and 4-pentylamino-4-oxobutanoic acids with antagonistic activity towards cholecystokinin” (Rotta Research Laboratorium S.p.A., priority 1986, dated 1990).

The subject of data set [1] is gallbladder. Description: Antispastic activity on the gallbladder in mice (egg yolk-induced emptying). It counts as in vivo. The following applies: for % inhibition of the emptying of the gallbladder: egg yolk; for ED50: Mus musculus, ip, read-out: ID50 (antispastic activity on contraction of the gallbladder induced by egg yolk). How it is done:
(§1) Emptying of the gall bladder was induced by a single oral administration of 1 ml of a 30% suspension (weight/volume) of lyophylised egg yolk in a physiological solution.
(§2) As stated above once it has been absorbed egg yoke induces a release of endogenous CCK.
(§3) The antagonistic compounds were administered intraperitoneally (i.p.) 15 minutes before the contractant.
(§4) The % antispastic activity for each dose was calculated from the following formula: [formula] where P1 =the average weight of the gallbladders of the group of animals treated with the drug plus the contractant.
(§5) P2 =the average weight of the gallbladders of the group of animals treated with the contractant only.
(§6) P3 --the average weight of the gallbladders of the control group of animals.
(§7) The results obtained are given in Table 5 where the effects obtained are expressed as the ID50.

In data set [2] the test system is pyloric sphincter. Nature of the data set: Antispastic activity on pyloric contraction induced by CCK in rats. It counts as in vivo. The following applies: for % inhibition of the pyloric contraction: CCK 8 mcg/kg i.p.; for ED50: Rattus norvegicus, ip, i.p. 15 minutes before CCK 8 mcg/kg i.p., read-out: ID50 (antispastic activity on the pyloric contraction induced by CCK). The procedure:
A dose of 8 mcg/kg i.p. of CCK was used, which induced a sub-maximal contraction of the pylorus. The antagonistic compounds were administered (i.p.) 15 minutes before the contractant. 10 minutes after administration of the contractant, the animals were treated per os with 25 ml/kg of H2 O. 5 minutes after the administration the animals were killed, their stomachs removed and the gastric content measured by removal with a syringe.
The % antispastic activity for each dose administered was calculated from the following formula: [formula] where V1 =the volume of gastric content of the group of animals treated with the drug plus the contractant.
V2 =the volume of gastric content of the group of animals treated with the contractant only.
V3 =the volume of gastric content of the control group of animals.
Various doses of the compounds were tested so as to enable the calculation of an ID50 value, that is the dose (in mg/kg i.p.) which is able to inhibit the contractant effect of CCK by 50%.
The results obtained are given in Table 6 where the effects obtained are expressed as the ID50.

Data set [3] relates to pancreas. Nature of the data set: Protective activity in experimental pancreatitis induced by sodium taurocholate in rats. It counts as in vivo. As to conditions: for ED50: Rattus norvegicus, ip, taurocholate pancreatitis. How it is done: The method described by Aho et al. (Scandinavian J. Gastroenterology 15 (1980), 411-16) was followed.
Male rats weighing approximately 250 g were subjected to laparotomy and the pancreas exposed. 0.3 ml of a 6% solution of sodium taurocholate were injected directly into the pancreatic tissue.
The products under examination were administered intraperitoneally (i.p.) 30 minutes before the operation and 3 hours after the operation.
6 hours after the laparotomy, blood was taken from the retro-orbital plexus after anaesthesia with ether, the animals were killed and the pancreas was removed and weighed. The activity of the serum amylase was determined by the Ceska method (Clin. Chim. Acta 26 (1969), 437-444).
The compounds were tested at various doses so as to enable the calculation of an ID50 value, that is the dose (in mg/kg i.p.) which is able to inhibit the toxic effect of the sodium taurocholate by 50%, expressed both as a % inhibition of the increase in weight of the pancreas and as a % inhibition of the increase in serum amylase.

Data set [4] is described as follows: Antispastic activity on the gallbladder in mice (egg yolk-induced emptying). It counts as in vivo. As to conditions: mouse, in vivo, ip, 75 mg/kg, read-out: death of the animals treated. How it is done: as §1, §2, §3, §4, §5, §6, §7
Data set [5] deals with T1, cholecystokinin receptors of ox gallbladder membranes (Bos taurus, UniProt A6QLH2).
T1 sequence (A6QLH2 1-427): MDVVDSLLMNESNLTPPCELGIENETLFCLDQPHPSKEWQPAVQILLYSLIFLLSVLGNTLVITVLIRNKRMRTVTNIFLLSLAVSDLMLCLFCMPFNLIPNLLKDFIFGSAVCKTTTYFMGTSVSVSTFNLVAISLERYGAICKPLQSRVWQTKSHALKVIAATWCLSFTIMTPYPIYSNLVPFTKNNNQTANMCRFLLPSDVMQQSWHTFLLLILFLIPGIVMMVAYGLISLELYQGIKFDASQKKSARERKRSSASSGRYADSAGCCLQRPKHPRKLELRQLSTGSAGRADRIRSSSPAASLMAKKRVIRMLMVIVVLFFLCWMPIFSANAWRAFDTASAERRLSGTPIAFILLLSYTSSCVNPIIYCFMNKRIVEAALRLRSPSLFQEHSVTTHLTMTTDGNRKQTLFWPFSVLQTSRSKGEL
Nature of the data set: Inhibition of binding of (125-I)-Bolton Hunter-CCK-8 to ox gallbladder membranes. The following applies: 2 h at 25° C., pH 7.4, read-out: IC50 (displacement of 50% of the (125-I)-CCK-8 from the receptors). How it is done:
The capacity of some compounds of the invention to inhibit the binding of (125-I)-Bolton Hunter-CCK-8 to the cholecystokinin receptors of ox gallbladder membranes was evaluated by comparison with the displacement induced by cold (unmarked) CCK.
The ox gallbladder cell membranes were prepared by homogenisation with Tris buffer (pH 7.4) and centrifuging of the homogenate at 50,000 gravity for 10 minutes. The membranes were then incubated together with the radioactive tracer and the compounds under study for 2 h at 25° C.
After the supernatant liquid had been discarded, the radioactivity associated with the pellet was determined with a liquid scintillator. The specific binding was determined as the difference between the binding in the absence and in the presence of 10^-6 M CCK-8.

The mark [6] stands for this setting: i.p. 15 minutes before the contractant.
The mark [7] stands for this setting: read-out: ID50, inhibition of pancreas weight increase.
Where [8] appears, read: read-out: ID50, inhibition of serum amylase increase.

Like-named read-outs stand apart in the source and are kept apart here.

With `CCCCCN(CCCCC)C(=O)C(CCC(=O)O)NC(=O)c1ccc2ccccc2c1` (racemic) [Compound 19, D,L-4-(2-naphthoylamino)-5-(di-n-pentylamino)-5-oxopentanoicacid], the “% inhibition of the emptying of the gallbladder” value is 12.1% in data set [1] (0.03 mg/kg i.p.), 41.2% in data set [1] (0.1 mg/kg i.p.) and 83.7% in data set [1] (0.3 mg/kg i.p.). Besides, the “contraction of the gallbladder induced by the egg yolk (in words)” value in data set [1] (0.3 mg/kg) is reported as “almost completely blocks the contraction”. Further, the ED50 in data set [1] (setting [6]) was 0.11 mg/kg; in data set [2], 0.05 mg/kg; in data set [3] (setting [7]), 1.7 mg/kg; in data set [3] (setting [8]), 1.1 mg/kg; in data set [3] (read-out: dose inhibiting the weight increase of the pancreas and the serum amylase increase by 50%), roughly 1.5 mg/kg. Also, the “% inhibition of the pyloric contraction” value in data set [2] (0.01 mg/kg i.p.) is given as 17.3%; in data set [2] (0.03 mg/kg i.p.), 28.7%; in data set [2] (0.1 mg/kg i.p.), 70.7%; in data set [2] (0.3 mg/kg i.p.) it was 95.5%. Also, the “% inhibition amylase increase” value in data set [3] (1 mg/kg i.p. + taurocholate) is 45.3%; in data set [3] (3 mg/kg i.p. + taurocholate) it was 76.7%; in data set [3] (10 mg/kg i.p. + taurocholate) it was 90.7%. Besides, the “% inhibition weight increase (pancreas)” value is given as 33.3% in data set [3] (1 mg/kg i.p. + taurocholate), 73.3% in data set [3] (3 mg/kg i.p. + taurocholate) and 93.3% in data set [3] (10 mg/kg i.p. + taurocholate). The results for the “% ratio pancreas weight / animal weight” value in data set [3] (1 mg/kg i.p. + taurocholate), in data set [3] (3 mg/kg i.p. + taurocholate) and in data set [3] (10 mg/kg i.p. + taurocholate) were 0.49%, 0.43% and 0.40%, respectively. In addition, the “amylase in the serum” value in data set [3] (1 mg/kg i.p. + taurocholate) is listed as 12.7 U/ml; in data set [3] (3 mg/kg i.p. + taurocholate), 10.0 U/ml; in data set [3] (10 mg/kg i.p. + taurocholate), 8.8 U/ml.
As to `CCCCCN(CCCCC)C(=O)C(CC(=O)O)NC(=O)c1ccc2ccccc2c1` (stereo not shown) [Compound 26], the “% inhibition of the emptying of the gallbladder” value amounted to 17.0% in data set [1] (0.1 mg/kg i.p.), 30.8% in data set [1] (0.3 mg/kg i.p.) and 66.7% in data set [1] (1.0 mg/kg i.p.). Moreover, the ED50 in data set [1] (setting [6]) amounted to 0.53 mg/kg; in data set [2], 0.14 mg/kg. Besides, the “% inhibition of the pyloric contraction” value is 24.8% in data set [2] (0.03 mg/kg i.p.), 50.0% in data set [2] (0.1 mg/kg i.p.), 57.7% in data set [2] (0.3 mg/kg i.p.) and 78.9% in data set [2] (1.0 mg/kg i.p.).
On to `CCCCCN(CCCOC)C(=O)C(CCC(=O)O)NC(=O)c1ccc2ccccc2c1` (stereo not shown) [Compound 28], for which the “% inhibition of the emptying of the gallbladder” value is reported as 16.5% in data set [1] (0.1 mg/kg i.p.), 36.2% in data set [1] (0.3 mg/kg i.p.) and 58.8% in data set [1] (1.0 mg/kg i.p.). Further, the ED50 in data set [1] (setting [6]) worked out at 0.62 mg/kg; in data set [2], 0.3 mg/kg; in data set [3] (setting [7]) it was 9.2 mg/kg; in data set [3] (setting [8]), 4.1 mg/kg. Further, the “% inhibition of the pyloric contraction” value in data set [2] (0.03 mg/kg i.p.) turned out to be 12.5%; in data set [2] (0.1 mg/kg i.p.), 29.2%; in data set [2] (0.3 mg/kg i.p.), 46.7%; in data set [2] (1.0 mg/kg i.p.), 73.0%. The results for the “% inhibition amylase increase” value in data set [3] (3 mg/kg i.p. + taurocholate), in data set [3] (10 mg/kg i.p. + taurocholate) and in data set [3] (20 mg/kg i.p. + taurocholate) were 45.0%, 68.3% and 88.3%, respectively. Also, the “% inhibition weight increase (pancreas)” value in data set [3] (3 mg/kg i.p. + taurocholate) worked out at 29.2%; in data set [3] (10 mg/kg i.p. + taurocholate), 50.0%; in data set [3] (20 mg/kg i.p. + taurocholate), 66.6%. The “% ratio pancreas weight / animal weight” value in data set [3] (3 mg/kg i.p. + taurocholate) came out at 0.52%; in data set [3] (10 mg/kg i.p. + taurocholate), 0.47%; in data set [3] (20 mg/kg i.p. + taurocholate), 0.43%. For the same compound, the results for the “amylase in the serum” value in data set [3] (3 mg/kg i.p. + taurocholate), in data set [3] (10 mg/kg i.p. + taurocholate) and in data set [3] (20 mg/kg i.p. + taurocholate) were 11.0 U/ml, 9.6 U/ml and 8.4 U/ml, respectively.
In the case of `COc1ccc(Cc2nccc3cc(OC)c(OC)cc23)cc1OC` [PAPAVERINE, papaverine, reference compound], the mortality in data set [4] is 20%. Besides, the “% inhibition of the emptying of the gallbladder” value in data set [1] (25 mg/kg i.p.) is on record as 0%; in data set [1] (50 mg/kg i.p.), 0%; in data set [1] (75 mg/kg i.p.), 26.1%. Also, the “ID50 (antispastic activity on contraction of the gallbladder induced by egg yolk)” value in data set [1] (setting [6]) is given as “INACTIVE”. Moreover, in data set [1] (only at the toxic dose of 75 mg/kg), the “antispastic activity on the gallbladder (in words)” value is given as “slightly active”.
For the compound “CCK-8: cold (unmarked) CCK; cholecystokinin”, the 50% inhibitory concentration (IC50) in data set [5] was determined as 0.2 nM.

Usually IC50 stands for the midpoint of a concentration-inhibition curve.
